In data set [1] the test system is human neutrophils stimulated with MSU. Put plainly: MSU-induced calcium mobilization in human neutrophils (Fura-2). The format is cell-based. The conditions noted are these: for effect on MSU-induced calcium levels: 10 μM 28a, 39, 47a, 89, 1 μM 14, 3 μM 43, TPO at indicated concentrations; for lowest concentration significantly inhibiting the MSU-induced increase in intracellular calcium: 1 mg/ml MSU, 30 min pre-incubation; for type of dose response, cytoplasmic calcium: 0.01 to 10 μM. Here is the method: Neutrophils were isolated from venous blood of healthy adult volunteers. Briefly, venous blood was obtained in tubes containing isocitrate, red blood cells were sedimented in 2% dextran and neutrophils were aseptically purified by centrifugation on Ficoll-Paque cushions. Contaminating erythrocytes were removed by hypotonic lysis and neutrophils were resuspended in Mg^2+-free HBSS containing 1.6 mM of CaCl2.
(FIG. 7D), D1=(28a) (FIGS. 7E and 7J), D2=(39) (FIG. 7F), D3=(47a) (FIGS. 7G and 7J), D4=(89) (FIG. 7H) prior to the addition of MSU (1 mg/ml).
The intracellular calcium concentration was determined with a spectrofluorometer and is expressed as the area under the curve (from the MSU injection up to 100 sec).
Changes in cytoplasmic calcium were then measured after the addition of MSU or HBSS (the negative control) using two excitation wavelengths at 340 and 380 nm and an emission wavelength of 510 nm. The free internal calcium concentration was estimated from the ratio of the fluorescence values obtained at 340 and 380 nm. The results are calculated as the area under the curve of the intracellular calcium concentration as a function of time (0-100 sec relative to stimulus addition).
Since one of the earliest molecular events in neutrophils that is initiated by MSU is the mobilization of intracellular calcium stores, the effect of (91) (CCl), (43) and (47a) was assessed on this early signalling event. Briefly, and as described in further detail above, human neutrophils were incubated with the fluorescent calcium indicator Fura-2 prior to incubation with a range of concentrations of (91) (CCl), (43) or (47a) and stimulated with MSU. Fura-2 monitors the increase in cytoplasmic calcium caused by its release from intracellular stores.

Data set [2] has the same test system. Put plainly: CXCL8/IL-8 release by human neutrophils (ELISA). The conditions noted are these: for lowest concentration giving significant decrease in MSU-induced release of IL-8: 1 mg/ml MSU, 3 h. The format is cell-based. How it is done:
(§1) Extracellular CXCL8/IL-8 or IL-1β were quantified by ELISA (Invitrogen). All samples were measured in duplicate.
In addition, since IL-1 induces the expression of adhesion molecules on endothelial cells as well as the synthesis of pro-inflammatory cytokines, which together promote a massive recruitment of neutrophils, the ability of CCl (91) and CH-35 (43) to dampen the production of IL-1 was also assessed.

Data set [3] has the same test system. Put plainly: IL-1 release by TNF-α primed human neutrophils (ELISA). The settings on record: 1 mg/ml MSU, 3 h. Type of data set: cell-based. Here is the method:
as §1
The production and secretion of mature IL-1 requires two stimuli. Human neutrophils were, therefore, primed with TNF-α prior to stimulation with MSU. […] (FIG. 8H-J).
(In general: ELISA stands for enzyme-linked immunosorbent assay.)

Data set [4] has the same test system. Put plainly: Superoxide production by human neutrophils (cytochrome C reduction). Type of data set: cell-based. The settings on record: for lowest concentration inhibiting MSU-induced superoxide production: 1 mg/ml MSU. How it is done:
The results are expressed as a ratio of the superoxide produced by the MSU control.
Superoxide production was measured using the reduction of cytochrome C assay. The difference between the optical density readings at 550 nm and 540 nm read within the first 10 minutes was multiplied by the extinction coefficient of cytochrome C to obtain the number of nmol O2 produced by 1×10^6 cells. The results are expressed as nmol O2/1×10^6 cells/ml.
An additional neutrophil effector function that is calcium-dependent, known to be activated by MSU and that can cause damage to the inflamed joint, is the production of ROS.

Data set [5] in a line: Plasma concentration and half-life in mice after subcutaneous injection. Here is the method: The concentration of the compound in the plasma (FIGS. 10A and B) was determined by mass spectrometry. The concentration of (91) (CCl) or CH-35 (43) is expressed as the means of the amount of (91) (CCl) or CH-35 (43) measured in the plasma (ng/ml) of 5 mice harvested at the same time point.

Data set [6] in a line: Concentration in circulating leukocytes of mice after subcutaneous injection. How it is done:
Blood was harvested by cardiac puncture and centrifuged to obtain circulating leukocytes. The concentration of the compound in the leukocytes (FIGS. 11A and B) was determined by mass spectrometry. The concentration of (91) (CCl) or CH-35 (43) is expressed as the means of the amount of (91) (CCl) or CH-35 (43) measured in circulating leukocytes (ng/ml) of 5 mice harvested at the same time point.

Data set [7] has as its system MSU-induced leukocyte recruitment to the dorsal air-pouch. Put plainly: Air-pouch model, compound given 1.5 hours after MSU. The settings on record: for lowest dose significantly dampening MSU-induced leukocyte recruitment: subcutaneous 1.5 hours after MSU. Type of data set: in vivo, mice. Here is the method:
(§2) An air-pouch was generated on the dorsum of mice over a period of seven days by injecting air subcutaneously. […] Seven hours after the administration of MSU, the exudate in the air pouches was harvested by two flushes with 2 ml and one with 1 ml of PBS+0.5 M EDTA and the number of recruited leukocytes determined by flow cytometry. Leukocytes were stained with an anti-CD45 and anti-Ly6 G antibody.

For data set [8], the system named is human neutrophils stimulated with fMLP. Put plainly: fMLP-induced increase in cytoplasmic calcium in human neutrophils. Type of data set: cell-based. The settings on record: 10 μM compound, 10^−7 M fMLP. How it is done:
The intracellular calcium concentration was determined with a spectrofluorometer and is expressed as the area under the curve.
To assess the specificity of CCl (91) towards neutrophil activation by MSU, it was determined whether CCl (91) was able to inhibit neutrophil responses towards an unrelated stimulus. A bacterial stimulus was chosen because neutrophil activation in response to this stimulus affects the survival of the host. Briefly, human neutrophils were incubated with the 10 μM CCl (91) prior to the activation with the bacterial peptide fMLF. […] In the presence of CCl (91), however, the cytoplasmic calcium response was unaffected.

The test system of data set [9] is MSU-induced leukocyte recruitment to the dorsal air-pouch. Put plainly: Air-pouch model, compound given 5 min prior to MSU. The format is in vivo, CD-1 mice. The conditions noted are these: mouse, in vivo. Here is the method:
as §2

Data set [10] is described as follows: Acute toxicity study in rats. Type of data set: in vivo.
The test system of data set [11] is atherosclerosis in LDLR KO mice. Put plainly: Mouse model of atherosclerosis, high-fat diet. The format is in vivo. Here is the method:
LDLR KO mice were randomly divided into 4 groups and either fed a control (CD) diet (group 1 & 2) or high-fat (group 3 & 4) diet. The high-fat (HF) diet contained 0.2% total cholesterol, 21% total fat by weight (42% kcal from fat), >60% of total fatty acids) and was high in sucrose (34% by weight). The animals and their feed were weighed every week.
Mice in group 2 & 4 were administered a dose of 0.5 μmol/kg CCl subcutaneously (s.c), 3 times a week for 8 weeks.
Blood was drawn from mice after the 8-week diet. Serum was prepared from the drawn blood and frozen until analysis. Serum triglycerides and cholesterol were measured in serum of mice by our Multidisciplinary and Microbiology Laboratory Service.
The aortic lesion ‘en face’ assay and Sudan IV staining was performed on aortas harvested from all mice. The percent lipid stained area in the aortic branch and the descending aorta was compared between mice using the ‘region of interest’ tool in ImageJ.
Blood was drawn from mice after the 8-week diet. Serum was prepared from the drawn blood and frozen until analysis. The levels of cytokines in the serum were measured by Luminex assay. The cytokines assayed were Eotaxin (CCL11), CCL21, G-CSF (CSF-3), RANKL, VEGF-A, IL-1 beta, IL-6 & MCP-1 (CCL2). These cytokines were chosen based on a cytokine signature that was reported to reflect the development of atherosclerosis in ApoE KO mice. The LDLR KO model was used since the inflammatory aspect of atherosclerosis is better represented in this model.

[12] abbreviates: 0.5 μmol/kg s.c. 3 times a week, 8 weeks, HF diet.
[13] abbreviates: en face assay, Sudan IV, HF+CCl.

As to `COc1cc2c(c(OCc3ccccc3Cl)c1OC)-c1ccc(OC)c(=O)cc1[C@@H](NC(C)=O)CC2` [(14), N-[(7S)-2,3,10-trimethoxy-9-oxo-1-((phenyl(2-chloro))methoxy)-5,6,7,9-tetrahydrobenzo[α]heptalen-7-yl] acetamide], the “effect on MSU-induced calcium levels” value in [1] was “neutrophil-inhibitory effects”.

For the compound `COc1cc2c(c(OC)c1OC)-c1ccc(SC)c(=O)cc1[C@@H](NC(C)=O)CC2` [(39), N-[(7S)-1,2,3-trimethoxy-10-methylsulfanylo-9-oxo-5,6,7,9-tetrahydrobenzo [α]heptalen-7-yl]acetamide], the “effect on MSU-induced calcium levels” value in [1] was “neutrophil-inhibitory effects”.

For `CCCOc1cc2c(c(OC)c1OC)-c1ccc(SC)c(=O)cc1[C@@H](NC(C)=O)CC2` [(43), N-[(7S)-3-propoxy-1,2-dimethoxy-10-methylsulfanyl-9-oxo-5,6,7,9-tetrahydrobenzo [α]heptalen-7-yl]acetamide], in [1], the “effect on MSU-induced calcium levels” value is reported as “neutrophil-inhibitory effects”; the “lowest concentration significantly inhibiting the MSU-induced increase in intracellular calcium” value came out at 0.1 µM; the “type of dose response, cytoplasmic calcium” value is “classical monotonic dose response”. Also, the “lowest concentration giving significant decrease in MSU-induced release of IL-8” value in data set [2] was 0.1 µM. In data set [3], the “concentration at which MSU-induced IL-1 production is diminished (threshold)” value came out at 1 µM. Besides, the “lowest concentration inhibiting MSU-induced superoxide production” value in data set [4] came out at 0.1 µM. For the same compound, in data set [5] (5 μmol/kg subcutaneous, mice), the “time after injection at which plasma level dropped to undetectable” value was “about 50 minutes” and the “time of peak plasma concentration” value was 15 min. For the same compound, the “time of peak concentration in circulating leukocytes” value in [6] (5 μmol/kg subcutaneous, mice) turned out to be 15 min. In addition, in data set [7], the “lowest dose significantly dampening MSU-induced leukocyte recruitment” value amounted to 2.5 µmol/kg.

`COC(=O)N[C@H]1CCc2cc(O)c(OC)c(OC)c2-c2ccc(SC)c(=O)cc21` [(89)]: the “effect on MSU-induced calcium levels” value in data set [1] is given as “exception”.

As a reminder, the half-life is the time needed for the level to fall by half in the phase considered. A lower half-life goes with fast loss. Consider `CCOc1cc2c(c(OC)c1OC)-c1ccc(SC)c(=O)cc1[C@@H](NC(=O)OC)CC2` [(91)], for which the “effect on MSU-induced increase in cytoplasmic calcium at 10 μM” value in data set [1] (10 μM) was “does not have a significant effect”. In data set [1], the “lowest concentration significantly inhibiting the MSU-induced increase in intracellular calcium” value is 0.1 µM and the “type of dose response, cytoplasmic calcium” value is “non-monotonic dose response”. Also, the “fold lower concentration than colchicine for inhibiting calcium mobilization” value in data set [1] (versus colchicine) was “about 100 fold”. Further, the “cytoplasmic calcium response to fMLF in presence of compound” value in data set [8] was “unaffected”. For the same compound, in data set [2], the “lowest concentration giving significant decrease in MSU-induced release of IL-8” value was found to be 0.1 µM. The “fold lower concentration than colchicine for inhibiting release of IL-8” value in data set [2] (versus colchicine) is “about 10 fold”. Also, in data set [3], the “concentration at which MSU-induced IL-1 production is diminished (threshold)” value came to 0.1 µM. The “lowest concentration inhibiting MSU-induced superoxide production” value in data set [4] worked out at 0.1 µM. Besides, in data set [4] (versus colchicine), the “fold lower concentration than colchicine for inhibiting superoxide production” value is on record as “about 10 fold”. Besides, the “persistence in the plasma” value in data set [5] (5 μmol/kg subcutaneous, mice) was “at least 2 hours”. In data set [5] (mouse, in vivo, sc), the “fraction of peak plasma concentration by 60 minutes” value is listed as “less than ¼”, the peak plasma concentration was 80 ng/mL and the “time of peak plasma concentration” value came to 15 min. This compound also came in with a half-life in data set [5] (mouse, in vivo, sc, 5 umol/kg) of 13.3 min. Besides, in [6] (mouse, in vivo, sc), the “time of peak concentration in circulating leukocytes” value was determined as 15 min. The “fold lower dose than colchicine inhibiting leukocyte recruitment” value in data set [9] was approximately 10 fold. Moreover, in data set [9] (sc), the “dose inhibiting MSU-induced leukocyte recruitment” value was 0.5 µmol/kg. Also, the “fold lower dose than effective dose of colchicine inhibiting leukocyte recruitment” value in data set [7] (mouse, in vivo) was “about 10 fold”. Moreover, the “lowest dose significantly dampening MSU-induced leukocyte recruitment” value in data set [7] turned out to be 0.5 µmol/kg. Besides, the “toxicity compared with colchicine” value in data set [10] (acute toxicity study in rats) is given as “less toxic than colchicine”. Further, the “maximal tolerable dose relative to colchicine” value in data set [10] (rats) worked out at 3 fold. For the same compound, in [11] (0.5 μmol/kg s.c. 3 times a week, 8 weeks), the behaviour and tolerability result is “did not show any signs of suffering”. Moreover, in [11] (setting [12]), the “serum cholesterol versus HF diet alone” value was “lower” and the “serum triglycerides versus HF diet alone” value is recorded as “lower”. Also, the “effect on serum cytokine levels” value in data set [11] (Luminex, HF diet 8 weeks) is “no significant effect”. In data set [11] (setting [13]), the “percent of total area of the aortic arch covered by lesions versus HF diet” value is “smaller percent” and the “percent of total area of the descending aorta covered by lesions versus HF diet” value was “smaller percent”. Moreover, the “percent of total area of the descending aorta covered by lesions” value in data set [11] (majority of mice in the HF+CCl group) is on record as “less than 1%”.

For `COC(=O)N(C)[C@H]1CCc2cc(OC)c(OC)c(OC)c2-c2ccc(SC)c(=O)cc21` [TPO, reference compound], the “effect on MSU-induced calcium levels” value in data set [1] is “inhibition at higher concentrations”.

Values taken from US20210283092A1, “METHODS AND USES OF […] DERIVATIVES” (priority 2018, published 2021).
